What all share (format): cell-based
Test [1] relates to Staphylococcus aureus MSQS (methicillin sensitive and quinolone sensitive). The test is described as follows: MIC, agar dilution, staphylococci. The following applies: 10^4 CFU/spot, 37° C., 24 hours. The procedure:
(§1) The following results were obtained on a standard in-vitro test system. The activity is described in terms of the minimum inhibitory concentration (MIC) determined by the agar-dilution technique with an inoculum size of 10^4 CFU/spot. Typically, compounds are active in the range 0.01 to 256 μg/ml.
(§2) Staphylococci were tested on agar, using an inoculum of 10^4 CFU/spot and an incubation temperature of 37° C. for 24 hours—standard test conditions for the expression of methicillin resistance.

Test [2] deals with Staphylococcus aureus MRQR (methicillin resistant and quinolone resistant). The test is described as follows: MIC, agar dilution, staphylococci. Conditions: 10^4 CFU/spot, 37° C., 24 hours. The procedure: as §1, §2
For orientation: In agar dilution, organisms are placed on agar that contains the substance at set levels.

Another test deals with Enterococcus faecium. In words: MIC, agar with 5% defibrinated horse blood, enterococci. Conditions: agar + 5% horse blood, 10^4 CFU/spot, 37° C., 5% CO2, 48 hours. The procedure: as §1
(§3) Streptococci and enterococci were tested on agar supplemented with 5% defibrinated horse blood, an inoculum of 10^4 CFU/spot and an incubation temperature of 37° C. in an atmosphere of 5% carbon dioxide for 48 hours—blood is required for the growth of some of the test organisms. Fastidious Gram negative organisms were tested in Mueller-Hinton broth, supplemented with hemin and NAD, grown aerobically for 24 hours at 37° C., and with an innoculum of 5×10^4 CFU/well.

The subject of test [3] is Linezolid Resistant Streptococcus pneumoniae. The test is described as follows: MIC, agar with 5% defibrinated horse blood, streptococci. The following applies: agar + 5% horse blood, 10^4 CFU/spot, 37° C., 5% CO2, 48 hours. The procedure:
as §1, §3

The subject of the next test is Streptococcus pneumoniae. The description is as above. Conditions: agar + 5% horse blood, 10^4 CFU/spot, 37° C., 5% CO2, 48 hours. Here is the method:
as §1, §3

A further test concerns Haemophilus influenzae. In words: MIC, fastidious Gram negative organisms in Mueller-Hinton broth. Conditions: Mueller-Hinton broth + hemin and NAD, 24 hours, 37° C., 5×10^4 CFU/well. Here is the method: as §1, §3
For another test, the system named is Moraxella catarrhalis. The test is described as above. Conditions: Mueller-Hinton broth + hemin and NAD, 24 hours, 37° C., 5×10^4 CFU/well. Here is the method: as §1, §3

Structures are written as SMILES.

On to `O=C1O[C@@H](Cn2ccnn2)CN1c1ccc(-c2cnc(C3=NOC(CO)C3)nc2)c(F)c1` (mixture of isomers) [Example 1, 3-(3-Fluoro-4-{2-(5RS)-[5-(hydroxymethyl)-4,5-dihydroisoxazol-3-yl]pyrimidin-5-yl}phenyl)-5-(5R)-(1H-1,2,3-triazol-1-ylmethyl)-1,3-oxazolidin-2-one], for which the MIC in test [1] amounted to 2 µg/mL; in test [2], 2 µg/mL; in the test with Enterococcus faecium it was 2 µg/mL; in test [3], 4 µg/mL; in the test with Streptococcus pneumoniae it was 0.25 µg/mL; in the test with Haemophilus influenzae, 8 µg/mL. For the same compound, in the test with Moraxella catarrhalis, the MIC was 2 µg/mL.

These data come from patent US20060058314A1, “Oxazolidinone derivatives and their use as antibacterial agents” (AstraZeneca AB, priority 2002, published 2006).
